We go through two compounds from patent publication US9770026B2, “Substituted pyrimidine compound and uses thereof” (Shenyang Sinochem Agrochemicals R&D Co., Ltd., priority 2012, dated 2017).

The first experiment deals with carmine spider mite. Kind of experiment: bioactivity test against carmine spider mite, airbrush spray. Type of experiment: in vivo. Conditions: Tetranychus cinnabarinus, 72 h, 10 mg/L; contrastive test; read-out: Insecticidal activity against carmine spider mite (% ). In outline:
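Broadbean seedlings infested with adult mites were sprayed with compound (acetone/methanol stock diluted in 0.1% Tween 80 water) by airbrush at 0.7 kg/cm^2, 0.5 ml. Three replicates were run. Mortality was scored after 72 hrs.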
Take `CCc1ncnc(OC(CC)c2ccc(Oc3ccc(C(F)(F)F)cn3)cc2)c1Cl` (stereo not shown) [CK15, reference compound]: the pest or weed control at 10 µg/mL was determined as 0%.

On to `Cc1ncnc(NC(=O)Cc2ccc(Oc3ccc(C(F)(F)F)cn3)cc2)c1Cl` [CK56, reference compound], for which the pest or weed control at 10 µg/mL turned out to be 0%.

Staying with this experiment, now noted: Tetranychus cinnabarinus, 72 h, 100 mg/L; contrastive test; read-out: Insecticidal activity against carmine spider mite (% ).
On to `CCc1ncnc(OC(CC)c2ccc(Oc3ccc(C(F)(F)F)cn3)cc2)c1Cl` (stereo not shown) [CK15, reference compound], for which the pest or weed control at 100 µg/mL was 0%.

Turning to `Cc1ncnc(NC(=O)Cc2ccc(Oc3ccc(C(F)(F)F)cn3)cc2)c1Cl` [CK56, reference compound], the pest or weed control at 100 µg/mL came out at 25%.

Still in this experiment, the particulars now being: Tetranychus cinnabarinus, 72 h, 600 mg/L; contrastive test; read-out: Insecticidal activity against carmine spider mite (% ).
For the compound `CCc1ncnc(OC(CC)c2ccc(Oc3ccc(C(F)(F)F)cn3)cc2)c1Cl` (stereo not shown) [CK15, reference compound], the pest or weed control at 600 µg/mL is 59%.

Turning to `Cc1ncnc(NC(=O)Cc2ccc(Oc3ccc(C(F)(F)F)cn3)cc2)c1Cl` [CK56, reference compound], the pest or weed control at 600 µg/mL turned out to be 32%.

In the next experiment the test system is Green peach aphids (Myzus Persicae Sulzer). Kind of experiment: bioactivity test against green peach aphid, airbrush foliar spray. Type of experiment: in vivo. The conditions noted are these: Myzus persicae, foliar, 48 h, 10 mg/L; contrastive test; read-out: Insecticidal activity against peach aphid (%). The procedure, abridged: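 Aphids (15-30 per cabbage leaf disc) on moist filter paper were airbrush-sprayed at 10 psi, 0.5 mL, with compound from acetone:methanol (1:1) diluted in water with 0.1% tween 80. Held at 25±1 C, 60±5% RH; survivors counted after 48 hrs to give death rates.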
Regarding `CCc1ncnc(OC(CC)c2ccc(Oc3ccc(C(F)(F)F)cn3)cc2)c1Cl` (stereo not shown) [CK15, reference compound], the pest or weed control at 10 µg/mL worked out at 0%.

As to `Cc1ncnc(NC(=O)Cc2ccc(Oc3ccc(C(F)(F)F)cn3)cc2)c1Cl` [CK56, reference compound], the pest or weed control at 10 µg/mL turned out to be 0%.

Still in this experiment, the particulars now being: Myzus persicae, foliar, 48 h, 100 mg/L; contrastive test; read-out: Insecticidal activity against peach aphid (%).
For `CCc1ncnc(OC(CC)c2ccc(Oc3ccc(C(F)(F)F)cn3)cc2)c1Cl` (stereo not shown) [CK15, reference compound], the pest or weed control at 100 µg/mL was found to be 40%.

For `Cc1ncnc(NC(=O)Cc2ccc(Oc3ccc(C(F)(F)F)cn3)cc2)c1Cl` [CK56, reference compound], the pest or weed control at 100 µg/mL was determined as 0%.

Still in this experiment, the particulars now being: Myzus persicae, foliar, 48 h, 600 mg/L; contrastive test; read-out: Insecticidal activity against peach aphid (%).
For `CCc1ncnc(OC(CC)c2ccc(Oc3ccc(C(F)(F)F)cn3)cc2)c1Cl` (stereo not shown) [CK15, reference compound], the pest or weed control at 600 µg/mL stood at 69%.

For the compound `Cc1ncnc(NC(=O)Cc2ccc(Oc3ccc(C(F)(F)F)cn3)cc2)c1Cl` [CK56, reference compound], the pest or weed control at 600 µg/mL was determined as 100%.

The next experiment deals with cucumber gray mold. Kind of experiment: fungicidal activity in vitro (inhibition rate) against cucumber gray mold. The conditions noted are these: 25 ppm, in vitro; read-out: inhibition rate against cucumber gray mold. In kind it is cell-based.
For `CCc1ncnc(OC(CC)c2ccc(Oc3ccc(C(F)(F)F)cn3)cc2)c1Cl` (stereo not shown) [CK15, reference compound], the inhibition at 25 ppm amounted to 0%.

In the case of `Cc1ncnc(NC(=O)Cc2ccc(Oc3ccc(C(F)(F)F)cn3)cc2)c1Cl` [CK56, reference compound], the inhibition at 25 ppm was below 50%.

A further experiment relates to corn rust. As to the kind of experiment: protectant activity in vivo against corn rust. The conditions noted are these: Zea mays, 168 h, read-out: control effect against corn rust (%), 6.25 mg/L; protectant activity.
Consider `CCc1ncnc(OC(CC)c2ccc(Oc3ccc(C(F)(F)F)cn3)cc2)c1Cl` (stereo not shown) [CK15, reference compound], for which the pest or weed control at 6.25 µg/mL came to 0%.

Staying with this experiment, now noted: Zea mays, 168 h, read-out: control effect against corn rust (%), 25 mg/L; protectant activity.
For `CCc1ncnc(OC(CC)c2ccc(Oc3ccc(C(F)(F)F)cn3)cc2)c1Cl` (stereo not shown) [CK15, reference compound], the pest or weed control at 25 µg/mL amounted to 30%.

The same experiment, now with this note: Zea mays, 168 h, read-out: control effect against corn rust (%), 100 mg/L; protectant activity.
Consider `CCc1ncnc(OC(CC)c2ccc(Oc3ccc(C(F)(F)F)cn3)cc2)c1Cl` (stereo not shown) [CK15, reference compound], for which the pest or weed control at 100 µg/mL came out at 85%.

Still in this experiment, the particulars now being: Zea mays, 168 h, read-out: control effect against corn rust (%), 400 mg/L; protectant activity.
In the case of `CCc1ncnc(OC(CC)c2ccc(Oc3ccc(C(F)(F)F)cn3)cc2)c1Cl` (stereo not shown) [CK15, reference compound], the pest or weed control at 400 µg/mL is 95%.

With `Cc1ncnc(NC(=O)Cc2ccc(Oc3ccc(C(F)(F)F)cn3)cc2)c1Cl` [CK56, reference compound], the pest or weed control at 400 µg/mL came to 70%.

The test system of another experiment is Diamond back moth. Kind of experiment: insecticidal activity against diamond back moth, airbrush spray. In kind it is in vivo. Conditions: 72 h, 10 mg/L. In outline: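 Airbrush leaf-disc spray test: both faces of 2 cm cabbage discs received 0.5 ml of test solution at 0.7 kg/cm^2. Solutions were made in acetone:methanol (1:1) and brought to concentration with 0.1% Tween 80 in water. Ten second-instar larvae per disc, triplicates, were held at 25° C and 60˜70% R.H., with mortality recorded at 72 hrs.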
Turning to `CCc1ncnc(OC(CC)c2ccc(Oc3ccc(C(F)(F)F)cn3)cc2)c1Cl` (stereo not shown) [CK15, reference compound], the pest or weed control at 10 µg/mL was found to be 0%.

Staying with this experiment, now noted: 72 h, 100 mg/L.
Compound `CCc1ncnc(OC(CC)c2ccc(Oc3ccc(C(F)(F)F)cn3)cc2)c1Cl` (stereo not shown) [CK15, reference compound] registered a pest or weed control at 100 µg/mL of 15%.

The experiment is the same for the next values; noted with them: 72 h, 600 mg/L.
In the case of `CCc1ncnc(OC(CC)c2ccc(Oc3ccc(C(F)(F)F)cn3)cc2)c1Cl` (stereo not shown) [CK15, reference compound], the pest or weed control at 600 µg/mL was found to be 17%.

In the case of `Cc1ncnc(NC(=O)Cc2ccc(Oc3ccc(C(F)(F)F)cn3)cc2)c1Cl` [CK56, reference compound], the pest or weed control at 600 µg/mL was determined as 0%.

A further experiment concerns rice blast. Kind of experiment: microbe, parasite or virus in culture. In kind it is cell-based. Conditions: Pyricularia oryzae, read-out: inhibition rate against rice blast, 25 ppm, in vitro.
As for `CCc1ncnc(OC(CC)c2ccc(Oc3ccc(C(F)(F)F)cn3)cc2)c1Cl` (stereo not shown) [CK15, reference compound], the inhibition at 25 ppm came out at 0%.

For the compound `Cc1ncnc(NC(=O)Cc2ccc(Oc3ccc(C(F)(F)F)cn3)cc2)c1Cl` [CK56, reference compound], the inhibition at 25 ppm is below 50%.

A further experiment has as its system armyworm. Kind of experiment: bioactivity test against armyworm, airbrush spray. In kind it is in vivo. Conditions: 72 h, 600 mg/L; read-out: Insecticidal activity against armyworm (%).
In the case of `CCc1ncnc(OC(CC)c2ccc(Oc3ccc(C(F)(F)F)cn3)cc2)c1Cl` (stereo not shown) [CK15, reference compound], the pest or weed control at 600 µg/mL is 0%.

As to `Cc1ncnc(NC(=O)Cc2ccc(Oc3ccc(C(F)(F)F)cn3)cc2)c1Cl` [CK56, reference compound], the pest or weed control at 600 µg/mL turned out to be 0%.

The next experiment deals with cucumber downy mildew. Kind of experiment: protectant activity in vivo against cucumber downy mildew. The conditions noted are these: Cucumis sativus, 168 h, read-out: control effect against cucumber downy mildew (%), 25 mg/L; protectant activity.
`CCc1ncnc(OC(CC)c2ccc(Oc3ccc(C(F)(F)F)cn3)cc2)c1Cl` (stereo not shown) [CK15, reference compound]: the pest or weed control at 25 µg/mL was determined as 0%.

In the case of `Cc1ncnc(NC(=O)Cc2ccc(Oc3ccc(C(F)(F)F)cn3)cc2)c1Cl` [CK56, reference compound], the pest or weed control at 25 µg/mL was 0%.

The experiment is the same for the next values; noted with them: Cucumis sativus, 168 h, read-out: control effect against cucumber downy mildew (%), 50 mg/L; protectant activity.
For `CCc1ncnc(OC(CC)c2ccc(Oc3ccc(C(F)(F)F)cn3)cc2)c1Cl` (stereo not shown) [CK15, reference compound], the pest or weed control at 50 µg/mL is 0%.

Take `Cc1ncnc(NC(=O)Cc2ccc(Oc3ccc(C(F)(F)F)cn3)cc2)c1Cl` [CK56, reference compound]: the pest or weed control at 50 µg/mL is 0%.

The same experiment, now with this note: Cucumis sativus, 168 h, read-out: control effect against cucumber downy mildew (%), 100 mg/L; protectant activity.
On to `CCc1ncnc(OC(CC)c2ccc(Oc3ccc(C(F)(F)F)cn3)cc2)c1Cl` (stereo not shown) [CK15, reference compound], for which the pest or weed control at 100 µg/mL stood at 15%.

Take `Cc1ncnc(NC(=O)Cc2ccc(Oc3ccc(C(F)(F)F)cn3)cc2)c1Cl` [CK56, reference compound]: the pest or weed control at 100 µg/mL is 10%.

The same experiment, now with this note: Cucumis sativus, 168 h, read-out: control effect against cucumber downy mildew (%), 400 mg/L; protectant activity.
Regarding `CCc1ncnc(OC(CC)c2ccc(Oc3ccc(C(F)(F)F)cn3)cc2)c1Cl` (stereo not shown) [CK15, reference compound], the pest or weed control at 400 µg/mL stood at 95%.

As to `Cc1ncnc(NC(=O)Cc2ccc(Oc3ccc(C(F)(F)F)cn3)cc2)c1Cl` [CK56, reference compound], the pest or weed control at 400 µg/mL was 100%.

The subject of another experiment is wheat powdery mildew. Kind of experiment: protectant activity in vivo against wheat powdery mildew. Conditions: Triticum aestivum, 168 h, read-out: control effect against wheat powdery mildew (%), 6.25 mg/L; protectant activity.
Take `CCc1ncnc(OC(CC)c2ccc(Oc3ccc(C(F)(F)F)cn3)cc2)c1Cl` (stereo not shown) [CK15, reference compound]: the pest or weed control at 6.25 µg/mL was found to be 0%.

Staying with this experiment, now noted: Triticum aestivum, 168 h, read-out: control effect against wheat powdery mildew (%), 25 mg/L; protectant activity.
On to `CCc1ncnc(OC(CC)c2ccc(Oc3ccc(C(F)(F)F)cn3)cc2)c1Cl` (stereo not shown) [CK15, reference compound], for which the pest or weed control at 25 µg/mL was 10%.

The same experiment, now with this note: Triticum aestivum, 168 h, read-out: control effect against wheat powdery mildew (%), 100 mg/L; protectant activity.
Turning to `CCc1ncnc(OC(CC)c2ccc(Oc3ccc(C(F)(F)F)cn3)cc2)c1Cl` (stereo not shown) [CK15, reference compound], the pest or weed control at 100 µg/mL was determined as 85%.

Staying with this experiment, now noted: Triticum aestivum, 168 h, read-out: control effect against wheat powdery mildew (%), 400 mg/L; protectant activity.
Take `CCc1ncnc(OC(CC)c2ccc(Oc3ccc(C(F)(F)F)cn3)cc2)c1Cl` (stereo not shown) [CK15, reference compound]: the pest or weed control at 400 µg/mL was determined as 95%.

On to `Cc1ncnc(NC(=O)Cc2ccc(Oc3ccc(C(F)(F)F)cn3)cc2)c1Cl` [CK56, reference compound], for which the pest or weed control at 400 µg/mL was 70%.
